From patent publication US8536342B2, “Process for producing thiabenzoazulene-propionic acid derivative” (Nippon Zoki Pharmaceutical Co., Ltd., priority 2009, dated 2013)

Tests used:
intracerebral receptor = biological target: T1, intracerebral receptor (Mus musculus, UniProt P70174); test: intracerebral receptor binding test by oral administration to mice; type: in vivo
T1 construct: from tissue; host or cells: mouse brain

histamine H1 receptor = histamine H1 receptor (Homo sapiens, UniProt P35367); test: antagonistic action to histamine H1 receptor
histamine H1 receptor, sequence (P35367 whole entry, species assumed): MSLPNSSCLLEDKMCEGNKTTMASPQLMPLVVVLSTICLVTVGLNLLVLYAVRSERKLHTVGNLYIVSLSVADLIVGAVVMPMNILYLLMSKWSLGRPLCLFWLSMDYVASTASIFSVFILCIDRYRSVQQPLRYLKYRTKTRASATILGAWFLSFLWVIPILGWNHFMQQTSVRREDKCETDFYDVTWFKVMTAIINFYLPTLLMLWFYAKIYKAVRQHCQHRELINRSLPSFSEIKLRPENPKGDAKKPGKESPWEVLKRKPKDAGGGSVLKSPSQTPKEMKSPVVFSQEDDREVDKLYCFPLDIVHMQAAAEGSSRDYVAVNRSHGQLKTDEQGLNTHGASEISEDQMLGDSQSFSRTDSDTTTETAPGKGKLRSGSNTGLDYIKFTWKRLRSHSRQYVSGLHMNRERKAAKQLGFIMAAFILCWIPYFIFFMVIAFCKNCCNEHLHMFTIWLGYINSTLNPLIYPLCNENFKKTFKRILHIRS

T1 sequence (P70174 whole entry): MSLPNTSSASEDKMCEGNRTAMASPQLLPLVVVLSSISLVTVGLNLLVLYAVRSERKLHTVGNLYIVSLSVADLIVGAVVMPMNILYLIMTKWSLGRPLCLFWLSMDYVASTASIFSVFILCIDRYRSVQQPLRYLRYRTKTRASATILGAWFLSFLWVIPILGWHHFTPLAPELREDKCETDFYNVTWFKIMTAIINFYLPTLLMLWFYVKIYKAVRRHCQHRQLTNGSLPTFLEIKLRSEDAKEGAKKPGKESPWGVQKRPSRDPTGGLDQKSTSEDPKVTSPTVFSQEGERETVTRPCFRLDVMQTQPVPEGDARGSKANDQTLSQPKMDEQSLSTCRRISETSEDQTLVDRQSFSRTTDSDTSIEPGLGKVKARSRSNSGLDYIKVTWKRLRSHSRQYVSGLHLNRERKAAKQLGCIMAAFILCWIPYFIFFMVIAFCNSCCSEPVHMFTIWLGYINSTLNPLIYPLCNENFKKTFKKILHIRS

| Compound | melting point | further results |
| --- | --- | --- |
| O=C(O)C=Cc1cc2c(s1)CCc1ccccc1C2=C1CCNCC1 [Compound 4, 3-(4-piperidin-4-ylidene-9,10-dihydro-4H-1-thiabenzo[f]azulen-2-yl)acrylic acid] | 269 to 272 °C (dec.) | – |
| O=C(O)CCc1cc2c(s1)C=Cc1ccccc1C2=C1CCNCC1 [Compound 5, 3-(4-piperidin-4-ylidene-4H-1-thiabenzo-[f]azulen-2-yl)propionic acid] | 254 °C (dec.) | intracerebral transmigration (intracerebral receptor): low intracerebral transmigration; antagonistic action to histamine H1 receptor (histamine H1 receptor): excellent antagonistic action; antihistaminic action (histamine H1 receptor): excellent antihistaminic action |
| CC(C)(C)OC(=O)N1CCC(=C2c3ccccc3CCc3sc(C=CC(=O)O)cc32)CC1 [Compound 6, 3-[4-(1-tert-butoxycarbonylpiperidin-4-ylidene)-9,10-dihydro-4H-1-thiabenzo[f]azulen-2-yl]acrylic acid] | 186 °C (dec.) | – |
| CC(C)(C)OC(=O)N1CCC(=C2c3ccccc3C=Cc3sc(CCC(=O)O)cc32)CC1 [Compound 7, 3-[4-(1-tert-butoxycarbonylpiperidin-4-ylidene)-4H-1-thiabenzo[f]azulen-2-yl]propionic acid] | 172 °C (dec.) | – |
| CCOC(=O)C=Cc1cc2c(s1)CCc1ccccc1C2=C1CCN(C(=O)OCC)CC1 [Compound 8, ethyl 4-[2-(2-ethoxycarbonylvinyl)-9,10-dihydro-1-thiabenzo[f]azulen-4-ylidene]piperidine-1-carboxylate] | 90 to 93 °C | – |

Further lines, with some results ahead:

| melting point | Compound | further results |
| --- | --- | --- |
| 110 to 113 °C | CCOC(=O)N1CCC(=C2c3ccccc3CCc3sccc32)CC1 [Compound 1, ethyl 4-(9,10-dihydro-1-thiabenzo[f]-azulen-4-ylidene)piperidine-1-carboxylate] | – |
| 146 to 149 °C | CCOC(=O)N1CCC(=C2c3ccccc3CCc3sc(C=O)cc32)CC1 [Compound 2, ethyl 4-(2-formyl-9,10-dihydro-1-thia-benzo[f]azulen-4-ylidene)piperidine-1-carboxylate] | – |
| 228 °C (dec.) | CCOC(=O)N1CCC(=C2c3ccccc3CCc3sc(C=CC(=O)O)cc32)CC1 [Compound 3, 3-[4-(1-ethoxycarbonylpiperidin-4-ylidene)-9,10-dihydro-4H-1-thiabenzo[f]azulen-2-yl]acrylic acid] | – |
| 141 to 142 °C | CN1CCC(=C2c3ccccc3CCc3sc(Br)cc32)CC1 [Compound 11, 4-(2-bromo-9,10-dihydro-1-thiabenzo[f]-azulen-4-ylidene)-1-methylpiperidine] | – |
